Measured values taken from patent publication US20120088667A1, “SAFENING AGENT” (priority 2009, published 2012).
Where two headings read alike, the source gives them in different places.

Legend:
[1] = test system: PEA cv Ragtime; experiment: Root nodulation, rooting and safening, pea, compost of low pH (Examples 7.5 and 7.7)
Text: (§1) The safener/safening system and the fertiliser were applied to the crops either simultaneously or sequentially.
(§2) Co=100% Cobalt Sulphate (20 g per litre and per hectare). FF1=20 g per litre Cobalt Sulphate (as per Co above) plus “Miracle-Gro” at xl recommended rate (applied at 15 g per 2.5 sq metres). Miracle-Gro contains: 24% N, 4% P, 13% K, plus 0.02% B, 0.03% Cu, 0.19% Fe, 0.05% Mn, 0.001% Mo and 0.03% Zn. FF2=20 g per litre Cobalt Sulphate plus Miracle-Gro at ×2 recommended rate. SAF: at least one from class (f) each at <3 g/l, plus at least one from class (c).
PEA—TRIAL 5—cv Ragtime. Scored/Counted+28 Days after Spraying. Sown in Compost of Low pH (5.0-5.5) on 28 Apr. 2008. Spray Date (VC)=26 May, V1 Date=14 June. Scored/Measured on 9 July. […] No inoculum applied.
Sowing details etc as per Example 7.5.

[2] = test system: Winter wheat cv Alchemy; experiment: Safening of herbicides (Chlorotoluron, Isoproturon, Flumioxazin), winter wheat
Text: (§3) Safening systems were applied to crops of oilseed rape and winter treated with various herbicides (Bifenox (with insecticide), Carbetamide, Propaquizafop, Chlorotoluron, Isoproturon, Flumioxazin). The safening system and the herbicide were applied to the crops either simultaneously or sequentially.
(§4) Oilseed rape: cv Excalibur, sown 26 Apr. 2008, at two seeds per 9 cm pot, sown in normal pH multi-purpose compost. Date of spraying: 6 June; Dates of measurement/scoring: 13 June, 20 June, 5 July. Winter wheat: cv Alchemy, sown 23 Apr. 2008, at seven seeds per 9 cm pot, sown in normal pH multi-purpose compost. Date of spraying: 24 May; Dates of measurement/scoring: 31 May, 7 June, 21 June. SAF: at least one from class (f) each at <3 g/l, plus at least one from class (c).
(§5) Statistical Layout: Randomised Complete Block trials, under glasshouse conditions, United Kingdom.

[3] = test system: Winter Barley cv Saffron; experiment: Safening of fertilisers, pot trial: phytotoxicity and vigour scores, winter barley; type: in vivo
Text: (§6) The safening system and the fertilizer were applied either simultaneously or sequentially.
(§7) Sprayed: mid-tillering phase (GS23). Winter Wheat: cv Limerick, sown 4 Jun. […] Sprayed: mid-tillering phase (GS23). Lettuce: cv Set, sown 10 Jul. 2008, at one seed per pot, in John Innes No 1 compost. Date of spraying: 30 July; Dates of measurement: 7 August, 14 August, 28 August. Sprayed: 2 true leaf stage.

[4] = test system: Oilseed rape cv Excalibur; details: for Greenness (0-9) (9 = Deeper Green) + 14 Days / Vigour (0-9) (9 = Most Vigour) + 14 days / Greenness (0-9) + 28 Days / Vigour (0-9) + 28 Days: score 0-9
Text: as §3, §4, §5

[5] = test system: Soybean; experiment: Root nodulation and safening, soybean, compost of low pH (Example 7.1); details: Soybean, compost of low pH (5.0-5.5)
Text: as §1, §2
Scored/Counted+28 Days After Spraying. Sown in Compost of low pH (5.0-5.5) on 1 May 2008. Spray Date (VC)=4 June, V1 Date=20 June. Scored/Measured on 17 July. […] Seed density approx 110 kg/ha. Soybean treated with standard inoculant at sowing.

[6] = test system: PEA cv Ragtime; experiment: Root nodulation and safening, pea, compost of normal pH (Example 7.6); details: compost of normal pH (6.5)
Text: as §1, §2
PEA—TRIAL 7.6—cv Ragtime. Dates as per Example 7.5 above, but sown in compost of normal pH (6.5). […] No inoculum was applied.

[7] = test system: Lettuce cv Set; experiment: Safening of fertilisers, pot trial: phytotoxicity and vigour scores, lettuce; type: in vivo
Text: as §6, §7

[8] = compost of low pH (5.0-5.5), V1, score 0-9
[9] = low pH compost, application at V1, 0-9 scale
[10] = herbicide Bifenox (with insecticide), Table 3.1
[11] = herbicides Carbetamide and Propaquizafop, Table 3.2
[12] = +28 days, herbicide Bifenox (with insecticide), Table 3.1
[13] = +28 days, herbicides Carbetamide and Propaquizafop, Table 3.2

CC(=O)Nc1ccc(O)cc1 [AC, N-(4-hydroxypheyl)acetamide, reference compound]
Nodules Per Plant (V1) ([1]; compost of low pH (5.0-5.5), V1, +28 days after spraying, no inoculum): 16.7 | Nodulation Score (0-9) (V1) [1, 8]: 5.0 | Phyto-Toxicity Score (0-9) (V1) [1, 8]: 5.2 | Vigour Score (0-9) (V1) [1, 8]: 5.1 | Nodules Per Plant (VC) ([1]; compost of low pH (5.0-5.5), VC): 17.3 | Nod Score (0-9) (VC) ([1]; compost of low pH (5.0-5.5), VC, score 0-9): 5.2 | Nodules Per Plant (V1) ([1]; low pH compost, application at V1 (data from Example 7.5)): 16.7 | Nodulation Score (0-9) (V1) [1, 9]: 5.0 | Phyto-Toxicity Score (0-9) (V1) [1, 9]: 5.2 | Rooting Score (0-9) (V1) [1, 9]: 4.2 | Greenness (0-9) (9 = Deeper Green) + 14 Days ([2]; Table 3.3, no herbicide): 8.0 | Greenness (0-9) + 28 Days ([2]; Table 3.3, no herbicide): 8.0 | Phytotoxicity (0-9) + 28 Days ([2]; Table 3.3, no herbicide): 8.0 | Greenness (0-9) (9 = Deeper Green) + 14 Days ([2]; Table 3.4, no herbicide): 8.0 | Greenness (0-9) + 28 Days ([2]; Table 3.4, no herbicide): 8.0 | Phytotoxicity (0-9) + 28 Days ([2]; Table 3.4, no herbicide): 8.0 | Greenness (0-9) (9 = Deeper Green) + 14 Days ([2]; Table 3.5, no herbicide): 8.0 | Greenness (0-9) + 28 Days ([2]; Table 3.5, no herbicide): 8.0 | Phytotoxicity (0-9) + 28 Days ([2]; Table 3.5, no herbicide): 8.0 | Vigour (0-9) (9 = Most Vigour) + 14 days ([3]; 336 h): 7.0 | Vigour (0-9) + 28 Days ([3]; 672 h): 8.0 | Vigour (0-9) (9 = Most Vigour) + 14 days ([3]; Table 1.3, winter barley, general fertilisers, score 0-9, +14 days): 7.0 | Vigour (0-9) + 28 Days ([3]; Table 1.3, winter barley, general fertilisers, score 0-9, +28 days): 8.0 | Phytotoxicity (0-9) + 28 Days ([4]; score 0-9, 0 = dead, +28 days, herbicides Carbetamide and Propaquizafop, Table 3.2): 8.0 | Greenness (0-9) (9 = Deeper Green) + 14 Days [4, 10]: 8.0 | Vigour (0-9) (9 = Most Vigour) + 14 days [4, 10]: 8.0 | Greenness (0-9) (9 = Deeper Green) + 14 Days [4, 11]: 8.0 | Vigour (0-9) (9 = Most Vigour) + 14 days [4, 11]: 8.0 | Greenness (0-9) + 28 Days [4, 12]: 8.0 | Vigour (0-9) + 28 Days [4, 12]: 8.0 | Greenness (0-9) + 28 Days [4, 13]: 8.0 | Vigour (0-9) + 28 Days [4, 13]: 8.0 | Nodules Per Plant (V1) ([5]; V1, +28 days after spraying, mean of 12 plants): 26.1 | Nodulation Score (0-9) (V1) ([5]; V1, score 0-9): 5.0 | Phyto-Toxicity Score (0-9) (V1) ([5]; V1, score 0-9): 8.0 | Vigour Score (0-9) (V1) ([5]; V1, score 0-9): 6.0 | Nodules Per Plant (VC) ([5]; VC, +28 days after spraying): 28.1 | Nod Score (0-9) (VC) ([5]; VC, score 0-9): 5.3 | Nodules Per Plant (V1) ([6]; V1, no inoculum): 15.4 | Nodulation Score (0-9) (V1) ([6]; V1, score 0-9): 4.9 | Phyto-Toxicity Score (0-9) (V1) ([6]; V1, score 0-9): 7.0 | Vigour Score (0-9) (V1) ([6]; V1, score 0-9): 6.7 | Nodules Per Plant (VC) ([6]; VC): 16.4 | Nod Score (0-9) (VC) ([6]; VC, score 0-9): 5.0 | Vigour (0-9) (9 = Most Vigour) + 14 days ([7]; 336 h): 8.0 | Vigour (0-9) + 28 Days ([7]; 672 h): 8.0 | Vigour (0-9) (9 = Most Vigour) + 14 days ([7]; Table 1.8, lettuce, KP/ATS, score 0-9, +14 days): 8.0 | Vigour (0-9) + 28 Days ([7]; Table 1.8, lettuce, KP/ATS, score 0-9, +28 days): 8.0 | Vigour (0-9) (9 = Most Vigour) + 14 days ([7]; Table 1.9, lettuce, general fertilisers, score 0-9, 9 = Most Vigour, +14 days): 8.0 | Vigour (0-9) + 28 Days ([7]; Table 1.9, lettuce, general fertilisers, score 0-9, +28 days): 8.0 | Phytotoxicity (0-9) (0 = Dead) + 14 Days ([7]; in vivo): 7.0 | Phytotoxicity (0-9) (0 = Dead) + 28 Days ([7]; in vivo): 6.5
